From patent publication US10723699B2 (Hyundai Pharm Co., Ltd., priority 2015, dated 2020)
Where two headings read alike, the source gives them in different places.

Target: T1, G protein-coupled receptor 119 (GPR-119) (Mesocricetus auratus, UniProt A0A1U8CD06)
T1 construct: hamster-derived β-cells containing G protein-coupled receptor 119 (GPR-119), HIT-T15 cells; host or cells: HIT-T15 (hamster pancreatic β-cells)
T1 sequence (A0A1U8CD06 1-334): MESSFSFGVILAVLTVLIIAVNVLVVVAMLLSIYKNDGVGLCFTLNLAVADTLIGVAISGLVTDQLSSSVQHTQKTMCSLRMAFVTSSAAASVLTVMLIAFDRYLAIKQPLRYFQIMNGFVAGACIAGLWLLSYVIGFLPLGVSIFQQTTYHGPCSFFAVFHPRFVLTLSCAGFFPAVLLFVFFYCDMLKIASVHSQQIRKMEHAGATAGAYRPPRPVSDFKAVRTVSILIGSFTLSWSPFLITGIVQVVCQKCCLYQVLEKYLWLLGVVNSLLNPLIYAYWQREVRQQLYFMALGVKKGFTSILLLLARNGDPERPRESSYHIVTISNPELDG
Assay: cAMP activity in HIT-T15 cells (cAMP dynamic kit, FRET)
Format: cell-based, hamster
Method in brief: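 Hamster HIT-T15 cells (60,000/well) were treated next day with compound at six concentrations, 0.0032–10 μM, for 1 h at 37° C. Cells were then lysed and cAMP measured by competitive HTRF immunoassay (D2-cAMP, cryptate anti-cAMP). Activity was derived as the change in FRET signal relative to DMSO.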

[1] = 1 hour at 37° C., six concentrations 0.0032 to 10 μM, read-out: EC50
[2] = EC50 (nM), 1 hour at 37° C., six concentrations 0.0032 to 10 μM

CCc1cnc(N2CCC(COc3ccc(C4=CCC(C(=O)N5CCC5)CC4)c(F)c3)CC2)nc1 (centres unmarked) [Example 425, azetidin-1-yl(4-(4-((1-(5-ethylpyrimidin-2-yl)piperidin-4-yl)methoxy)-2-fluorophenyl)cyclohex-3-enyl)methanone]
EC50 [1]: 48 nM
EC50 (Table 2, read-out: EC50 value): ≤ 50 nM

CCN1CCN(C(=O)C2CC=C(c3ccc(OCC4CCN(c5nc(C(C)C)no5)CC4)c(F)c3)CC2)CC1 (centres unmarked) [Example 346, (4-ethylpiperazin-1-yl)(4-(3-fluoro-4-((1-(3-isopropyl-1,2,4-oxadiazol-5-yl)piperidin-4-yl)methoxy)phenyl)cyclohex-3-enyl)methanone]
EC50 [1]: 100 nM

CC(C)(C)OC(=O)N1CCC(COc2ccc(C3=CCC(C(=O)N4CCCC4)CC3)cc2F)CC1 (centres unmarked) [Example 392, tert-butyl 4-((2-fluoro-4-(4-(pyrrolidine-1-carbonyl)cyclohex-1-enyl)phenoxy)methyl)piperidine-1-carboxylate]
EC50 [1]: 10 nM
EC50 (Table 2, read-out: EC50 value): ≤ 50 nM

CCc1cnc(N2CCC(COc3ccc(C4=CCC(C(=O)NCCO)CC4)cc3F)CC2)nc1 (single isomer, unassigned; (-)) [Example 441, (−)-4-(4-((1-(5-ethylpyrimidin-2-yl)piperidin-4-yl)methoxy)-3-fluorophenyl)-N-(2-hydroxyethyl)cyclohex-3-enecarboxamide]
EC50 [1]: 33 nM
EC50 (Table 2, read-out: EC50 value): ≤ 50 nM

CCN1CCN(C(=O)C2CC=C(c3ccc(OCC4CCN(c5nc(C(C)C)no5)CC4)c(F)c3)CC2)CC1 (centres unmarked) [Example 367, (4-ethylpiperazin-1-yl)(4-(3-fluoro-4-((1-(3-isopropyl-1,2,4-oxadiazol-5-yl)piperidin-4-yl)methoxy)phenyl)cyclohex-3-enyl)methanone]
EC50 [1]: 26 nM
EC50 (Table 2, read-out: EC50 value): ≤ 50 nM

CCc1cnc(N2CCC(COc3ccc(C4=CCC(C(=O)N5CCOCC5)CC4)cc3C(F)(F)F)CC2)nc1 (centres unmarked) [Example 400, (4-(4-((1-(5-ethylpyrimidin-2-yl)piperidin-4-yl)methoxy)-3-(trifluoromethyl)phenyl)cyclohex-3-enyl)(morpholino)methanone]
EC50 [1]: 140 nM

CCc1cnc(N2CCC(COc3ccc(C4=CCC(C(=O)N5CC(F)(F)C(F)(F)C5)CC4)cc3F)CC2)nc1 (centres unmarked) [Example 460, (4-(4-((1-(5-ethylpyrimidin-2-yl)piperidin-4-yl)methoxy)-3-fluorophenyl)cyclohex-3-enyl)(3,3,4,4-tetrafluoropyrrolidin-1-yl)methanone]
EC50 [1]: 12 nM
EC50 (Table 2, read-out: EC50 value): ≤ 50 nM

CCc1cnc(N2CCC(COc3ccc(C4=CCC(C(=O)N5CCC6(CC5)OCCO6)CC4)cc3F)CC2)nc1 (centres unmarked) [Example 306, (4-(4-((1-(5-ethylpyrimidin-2-yl)piperidin-4-yl)methoxy)-3-fluorophenyl)cyclohex-3-enyl)(1,4-dioxa-8-azaspiro[4.5]decan-8-yl)methanone]
EC50 [2]: 8.9 nM
EC50 (EC50 value, Table 2): ≤ 50 nM

CCc1cnc(N2CCC(COc3ccc(C4=CCC(C(=O)N5CCC(C#N)CC5)CC4)c(F)c3)CC2)nc1 (centres unmarked) [Example 424, 1-(4-(4-((1-(5-ethylpyrimidin-2-yl)piperidin-4-yl)methoxy)-2-fluorophenyl)cyclohex-3-enecarbonyl)piperidine-4-carbonitrile]
EC50 [1]: 21 nM
EC50 (Table 2, read-out: EC50 value): ≤ 50 nM

CCc1cnc(N2CCC(COc3ccc(C4=CCC(C(=O)N5CCC(O)CC5)CC4)c(F)c3)CC2)nc1 (centres unmarked) [Example 431, (4-(4-((1-(5-ethylpyrimidin-2-yl)piperidin-4-yl)methoxy)-2-fluorophenyl)cyclohex-3-enyl)(4-hydroxypiperidin-1-yl)methanone]
EC50 [1]: 27 nM
EC50 (Table 2, read-out: EC50 value): ≤ 50 nM

CC(OC(=O)N1CCC(COc2ccc(C3=CCC(C(=O)N4CCOCC4)CC3)cc2F)CC1)C(F)(F)F (centres unmarked) [Example 440, 1,1,1-trifluoropropan-2-yl 4-((2-fluoro-4-(4-(morpholine-4-carbonyl)cyclohex-1-enyl)phenoxy)methyl)piperidine-1-carboxylate]
EC50 [1]: 8.7 nM
EC50 (Table 2, read-out: EC50 value): ≤ 50 nM

CN(CCO)C(=O)C1CC=C(c2ccc(OCC3CCN(C(=O)OC(C)(C)C)CC3)cn2)CC1 (centres unmarked) [Example 341, tert-butyl 4-((6-(4-((2-hydroxyethyl)(methyl)carbamoyl)cyclohex-1-enyl)pyridin-3-yloxy)methyl)piperidine-1-carboxylate]
EC50 [1]: 180 nM

O=C(OC(C(F)(F)F)C(F)(F)F)N1CCC(COc2ccc(C3=CCC(C(=O)N4CCOCC4)CC3)cc2F)CC1 (centres unmarked) [Example 446, 1,1,1,3,3,3-hexafluoropropan-2-yl 4-((2-fluoro-4-(4-(morpholine-4-carbonyl)cyclohex-1-enyl)phenoxy)methyl)piperidine-1-carboxylate]
EC50 [1]: 20 nM
EC50 (Table 2, read-out: EC50 value): ≤ 50 nM

CC(C)OC(=O)N1CCC(COc2ccc(C3=CCC(C(=O)N4CCCC4)CC3)cc2F)CC1 (centres unmarked) [Example 401, isopropyl 4-((2-fluoro-4-(4-(pyrrolidine-1-carbonyl)cyclohex-1-enyl)phenoxy)methyl)piperidine-1-carboxylate]
EC50 [1]: 34 nM
EC50 (Table 2, read-out: EC50 value): ≤ 50 nM

CC(C)c1noc(N2CCC(COc3ccc(C4=CCC(C(=O)N5CCC(=NO)CC5)CC4)cc3F)CC2)n1 (centres unmarked) [Example 411, (4-(3-fluoro-4-((1-(3-isopropyl-1,2,4-oxadiazol-5-yl)piperidin-4-yl)methoxy)phenyl)cyclohex-3-enyl)(4-(hydroxyimino)piperidin-1-yl)methanone]
EC50 [1]: 15 nM
EC50 (Table 2, read-out: EC50 value): ≤ 50 nM

CCc1cnc(N2CCC(COc3ccc(C4=CCC(C(=O)NC5CCC5)CC4)cc3F)CC2)nc1 (centres unmarked) [Example 303, N-cyclobutyl-4-(4-((1-(5-ethylpyrimidin-2-yl)piperidin-4-yl)methoxy)-3-fluorophenyl)cyclohex-3-enecarboxamide]
EC50 [1]: 29 nM
EC50 (Table 2, read-out: EC50 value): ≤ 50 nM

CCc1cnc(N2CCC(COc3ccc(C4=CCC(C(=O)NC5CCCC5)CC4)cc3F)CC2)nc1 (centres unmarked) [Example 304, N-cyclopentyl-4-(4-((1-(5-ethylpyrimidin-2-yl)piperidin-4-yl)methoxy)-3-fluorophenyl)cyclohex-3-enecarboxamide]
EC50 [1]: 20 nM
EC50 (Table 2, read-out: EC50 value): ≤ 50 nM

CC(C)c1noc(N2CCC(COc3ccc(C4=CCC(C(=O)N5CCN(C6CC6)CC5)CC4)cc3)CC2)n1 (centres unmarked) [Example 397, (4-cyclopropylpiperazin-1-yl)(4-(4-((1-(3-isopropyl-1,2,4-oxadiazol-5-yl)piperidin-4-yl)methoxy)phenyl)cyclohex-3-enyl)methanone]
EC50 [1]: 9.9 nM

CCc1cnc(N2CCC(COc3ccc(C4=CCC(C(=O)N5CCSCC5)CC4)c(F)c3)CC2)nc1 (centres unmarked) [Example 423, (4-(4-((1-(5-ethylpyrimidin-2-yl)piperidin-4-yl)methoxy)-2-fluorophenyl)cyclohex-3-enyl)(thiomorpholino)methanone]
EC50 [1]: 19 nM
EC50 (Table 2, read-out: EC50 value): ≤ 50 nM

CCc1cnc(N2CCC(COc3ccc(C4=CCC(C(=O)N5CCNCC5)CC4)cc3F)CC2)nc1 (centres unmarked) [Example 434, (4-(4-((1-(5-ethylpyrimidin-2-yl)piperidin-4-yl)methoxy)-3-fluorophenyl)cyclohex-3-enyl)(piperazin-1-yl)methanone]
EC50 [1]: 180 nM

CC(C)c1noc(N2CCC(COc3ccc(C4=CCC(C(=O)N5CCC6(CC5)OCCO6)CC4)cc3F)CC2)n1 (centres unmarked) [Example 370, (4-(3-fluoro-4-((1-(3-isopropyl-1,2,4-oxadiazol-5-yl)piperidin-4-yl)methoxy)phenyl)cyclohex-3-enyl)(1,4-dioxa-8-azaspiro[4.5]decan-8-yl)methanone]
EC50 [2]: 15 nM
EC50 (EC50 value, Table 2): ≤ 50 nM

CCc1cnc(N2CCC(COc3ccc(C4=CCC(C(=O)N5CCC(CCO)CC5)CC4)cc3F)CC2)nc1 (centres unmarked) [Example 296, (4-(4-((1-(5-ethylpyrimidin-2-yl)piperidin-4-yl)methoxy)-3-fluorophenyl)cyclohex-3-enyl)(4-(2-hydroxyethyl)piperidin-1-yl)methanone]
EC50 [1]: 6.8 nM
EC50 (Table 2, read-out: EC50 value): ≤ 50 nM

CCc1cnc(N2CCC(COc3ccc(C4=CCC(C(=O)N5CCOCC5)CC4)c(F)c3)CC2)nc1 (centres unmarked) [Example 422, (4-(4-((1-(5-ethylpyrimidin-2-yl)piperidin-4-yl)methoxy)-2-fluorophenyl)cyclohex-3-enyl)(morpholino)methanone]
EC50 [1]: 18 nM
EC50 (Table 2, read-out: EC50 value): ≤ 50 nM

CCN1CCN(C(=O)C2CC=C(c3ccc(OCC4CCN(C(=O)OC(C)(C)C)CC4)cc3)CC2)CC1 (centres unmarked) [Example 203, tert-butyl 4-((4-(4-(4-ethylpiperazine-1-carbonyl)cyclohex-1-enyl)phenoxy)methyl)piperidine-1-carboxylate]
EC50 (Table 2, read-out: EC50 value): ≤ 50 nM

CC(C)c1noc(N2CCC(COc3ccc(C4=CCC(C(=O)N5CCC(=NO)CC5)CC4)cc3)CC2)n1 (centres unmarked) [Example 276, (4-(hydroxyimino)piperidin-1-yl)(4-(4-((1-(3-isopropyl-1,2,4-oxadiazol-5-yl)piperidin-4-yl)methoxy)phenyl)cyclohex-3-enyl)methanone]
EC50 (Table 2, read-out: EC50 value): ≤ 50 nM

Cn1nnnc1N1CCC(COc2ccc(C3=CCC(C(=O)N4CCCC4)CC3)cc2F)CC1 (centres unmarked) [Example 420, (4-(3-fluoro-4-((1-(1-methyl-1H-tetrazol-5-yl)piperidin-4-yl)methoxy)phenyl)cyclohex-3-enyl)(pyrrolidin-1-yl)methanone]
EC50 [1]: 110 nM
